Data as given in publication PMC6892255, “Identification of a potent small-molecule inhibitor of bacterial DNA repair that potentiates quinolone antibiotic activity in methicillin-resistant Staphylococcus aureus^” (Bioorganic & Medicinal Chemistry, 2019).
Entries after “also recorded” stand apart in the source; their conditions may differ.

Experiments:
E. coli DNA gyrase = molecular target: T1, E. coli DNA gyrase (Escherichia coli, UniProt P0AES4+P0AES6); assay: DNA gyrase supercoiling assay (pBR322); format: biochemical; conditions: at 12.5 μM (compounds); gel and densitometry
T1 construct: purchased Inspiralis
Method: DNA gyrase produces supercoiled DNA from relaxed and open-coiled DNA, which can be separated via agarose gel electrophoresis. […]
(§1) E. coli DNA gyrase supercoiling assay (Inspiralis) was performed according to the manufacturer’s instructions, ensuring a constant concentration of 1% (v/v) DMSO. Samples were separated on a 1% (w/v) agarose gel prepared with Tris/Borate/EDTA (TBE) buffer (1 M Tris-borate, 20 mM EDTA, pH 8.0). Electrophoresis was performed at 100 V until the bromophenol blue dye had run >6 cm to ensure resolution of relaxed and supercoiled DNA.
(§2) The gel was stained with SYBR Safe DNA gel stain (Invitrogen, 1:10,000 dilution in TBE) for 30 min, and visualized on a Syngene Gel Doc system. Band intensity was quantified using ImageJ software and the fraction of supercoiled plasmid was determined as the ratio of the density of the supercoiled band to the total density. Values were background corrected against the no-gyrase control and normalized to DMSO control for dose-response analysis.

E. coli topoisomerase IV = molecular target: T2, E. coli topoisomerase IV (Escherichia coli, UniProt P0AFI2+P20083); assay: Topoisomerase IV supercoiling relaxation assay (pQE80L); format: biochemical; conditions: at 12.5 µM (compounds)
T2 construct: purchased Inspiralis
Method: 2.1. Biological and biochemical methods […]
as §1, §2
E. coli topoisomerase IV supercoiling relaxation assay (Inspiralis) was performed according to the manufacturer’s instructions, ensuring a constant concentration of 1% (v/v) DMSO.
Supercoiled pQE80L was prepared via plasmid purification and used as the substrate for the reaction. Reactions were analyzed as described for DNA gyrase assays. […]

[1] = system: SOS response in JE2 cells; assay: SOS reporter assay (GFP under control of the recA promoter); format: cell-based, Staphylococcus aureus; conditions: for SOS response (normalized GFP fluorescence/cell): JE2 recA-GFP reporter, SOS activated with CFX (10 µM), titration of compound
Excerpt: A SOS reporter system was generated by transformation of JE2 cells with a plasmid containing GFP under control of the recA promoter. Activation of the SOS response in these cells results in expression of GFP which can be monitored by fluorescence intensity. […] IMP-1700 (10) was coupled with N-Boc-ethylenediamine to afford amide 19, followed by removal of the Boc group in 4 M HCl/dioxane and purification using strong cation exchange resin. The resulting free amine 20 was coupled to N-hydroxysuccinimide (NHS)-activated Sepharose resin at 4 °C overnight (Figure 2C), and the remaining NHS sites quenched in Tris buffer. SoluBL21 competent E. coli were transformed with pET28b^+ containing StrepII-tagged AddA and hexahistidine-tagged AddB, and expression induced overnight at 16 °C. […] Beads were washed three times with lysis buffer and bound protein eluted with SDS-PAGE sample buffer, followed by PAGE separation. […]
JE2 transformed with SOS-inducible pCN34 PrecA-gfp reporter plasmid expressing GFP under the control of the recA promoter were grown to late stationary phase at 37 °C in MHB containing kanamycin (90 μg/mL). Stationary phase JE2 culture (1 mL) was centrifuged (17,000 × g, 2 min), the supernatant removed and cells resuspended in assay media (12.5 µM […]
concentration was maintained >12.5 µM and DMSO concentration maintained at 1.5% (v/v).
JE2 culture (20 uL) was added to inhibitor solutions (180 µL) to a final cell density of 4 x 10^7 CFU/mL and samples incubated in a M200-PRO microplate reader (Tecan) at 37 °C with 700 rpm agitation for 17 h. GFP fluorescence intensity and OD600 were measured at 15 min intervals. Measurements were background corrected against no-inocula control and normalized to no-test inhibitor control at mid-exponential growth phase (4.5 h) for dose-response analysis. […]

[2] = system: AddAB (StrepII-AddA and His6-AddB); assay: Recombinant AddAB pulldown with compound-functionalized Sepharose; format: binding; conditions: E. coli lysate co-expressing StrepII-AddA and His6-AddB, Western blot
Excerpt: A SOS reporter system was generated by transformation of JE2 cells with a plasmid containing GFP under control of the recA promoter. Activation of the SOS response in these cells results in expression of GFP which can be monitored by fluorescence intensity. […] This decrease is indicative of inhibition of the SOS response during cell death, and consistent with the proposed inhibition of AddAB-mediated DNA repair pathways. Finally, to provide additional evidence that inhibition of the bacterial DNA repair pathway by IMP-1700 (10) occurred through inhibition of AddAB, a target pulldown was conducted. IMP-1700 (10) was coupled with N-Boc-ethylenediamine to afford amide 19, followed by removal of the Boc group in 4 M HCl/dioxane and purification using strong cation exchange resin. The resulting free amine 20 was coupled to N-hydroxysuccinimide (NHS)-activated Sepharose resin at 4 °C overnight (Figure 2C), and the remaining NHS sites quenched in Tris buffer. SoluBL21 competent E. coli were transformed with pET28b^+ containing StrepII-tagged AddA and hexahistidine-tagged AddB, and expression induced overnight at 16 °C. Cells were lysed via sonication and the total lysate incubated with IMP-1700 (10)-functionalized or control Sepharose beads which had been treated with DMSO then Tris-quenched. Beads were washed three times with lysis buffer and bound protein eluted with SDS-PAGE sample buffer, followed by PAGE separation. […]
agar (LA) supplemented with kanamycin (50 μg/mL). Liquid cultures were grown at 37 °C with shaking at 180 r.p.m until an OD600 of 0.5 was reached, at which point cultures were cooled to 16 °C. Protein expression was induced by addition of isopropyl β-D-thiogalactoside (1 mM), followed by incubation for 20 h at 16 °C with shaking. Cells were collected by centrifugation (4,000 × g, 5 min) and stored at -20 °C.
Cells were re-suspended in lysis buffer (50 mM Tris-HCl, 150 mM NaCl, pH 7.5) and lysed on ice by sonication (2 min, 5 s on-off cycle, 40% amplitude) using a Vibra-cell sonicator (Sonics). […]

[3] = system: methicillin-resistant S. aureus (MRSA, USA300 JE2); assay: Ciprofloxacin (CFX) potentiation in MRSA growth inhibition assay; format: cell-based, Staphylococcus aureus; conditions: compared to IMP-1700 (10)
Method: 2.1. Biological and biochemical methods
Bacterial strains and culture conditions
Strains utilized in the present study are detailed in Table S1. All strains used were cultivated on Mueller Hinton Agar (MHA) and grown to stationary-phase in Mueller Hinton Broth (MHB) at 37 °C for 16 h, with shaking at 180 r.p.m.
Minimum inhibitory concentration (MIC) assays
MIC assays were performed in 96 well plates and MICs were determined in accordance with the broth microdilution protocol.4 Strains grown to stationary-phase in MHB were adjusted to 5 x 10^5 colony-forming units (CFU)/mL in fresh MHB (100 µL/well) supplemented with DMSO to ensure a constant concentration of 0.5% (v/v) DMSO across all experiments. Where […]
or H2O2 (200 μM). Test compounds were prepared as two-fold serial dilutions. Cells were […]
as the lowest concentration with no visible bacterial growth, and the optical density at 600 nm (OD600) was recorded. OD600 measurements were background corrected against no-inocula control and normalized to DMSO control for dose-response analysis. The EC50 value mean and SEM were calculated from individual EC50 values from three biological replicates. […]

T2 sequence (P0AFI2 whole entry): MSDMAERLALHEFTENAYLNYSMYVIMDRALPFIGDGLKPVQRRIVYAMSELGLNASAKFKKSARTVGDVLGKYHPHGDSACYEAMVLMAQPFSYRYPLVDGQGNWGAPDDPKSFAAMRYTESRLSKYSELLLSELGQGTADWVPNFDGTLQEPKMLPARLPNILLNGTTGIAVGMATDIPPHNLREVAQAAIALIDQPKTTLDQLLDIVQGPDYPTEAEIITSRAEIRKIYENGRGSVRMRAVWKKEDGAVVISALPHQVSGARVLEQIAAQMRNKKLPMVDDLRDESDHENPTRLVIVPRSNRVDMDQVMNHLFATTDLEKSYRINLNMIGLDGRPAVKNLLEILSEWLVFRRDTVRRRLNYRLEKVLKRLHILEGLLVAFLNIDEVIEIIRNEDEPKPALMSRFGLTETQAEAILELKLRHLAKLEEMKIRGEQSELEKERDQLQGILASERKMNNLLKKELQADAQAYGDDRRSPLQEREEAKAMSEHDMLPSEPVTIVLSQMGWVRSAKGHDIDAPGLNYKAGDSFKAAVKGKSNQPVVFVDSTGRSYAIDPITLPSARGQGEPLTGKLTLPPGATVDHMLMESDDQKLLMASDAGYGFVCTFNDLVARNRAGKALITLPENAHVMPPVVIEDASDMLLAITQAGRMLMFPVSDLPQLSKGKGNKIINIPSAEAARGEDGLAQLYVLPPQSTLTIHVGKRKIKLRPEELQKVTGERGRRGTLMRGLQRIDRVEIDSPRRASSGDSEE
T2 sequence (P20083 whole entry): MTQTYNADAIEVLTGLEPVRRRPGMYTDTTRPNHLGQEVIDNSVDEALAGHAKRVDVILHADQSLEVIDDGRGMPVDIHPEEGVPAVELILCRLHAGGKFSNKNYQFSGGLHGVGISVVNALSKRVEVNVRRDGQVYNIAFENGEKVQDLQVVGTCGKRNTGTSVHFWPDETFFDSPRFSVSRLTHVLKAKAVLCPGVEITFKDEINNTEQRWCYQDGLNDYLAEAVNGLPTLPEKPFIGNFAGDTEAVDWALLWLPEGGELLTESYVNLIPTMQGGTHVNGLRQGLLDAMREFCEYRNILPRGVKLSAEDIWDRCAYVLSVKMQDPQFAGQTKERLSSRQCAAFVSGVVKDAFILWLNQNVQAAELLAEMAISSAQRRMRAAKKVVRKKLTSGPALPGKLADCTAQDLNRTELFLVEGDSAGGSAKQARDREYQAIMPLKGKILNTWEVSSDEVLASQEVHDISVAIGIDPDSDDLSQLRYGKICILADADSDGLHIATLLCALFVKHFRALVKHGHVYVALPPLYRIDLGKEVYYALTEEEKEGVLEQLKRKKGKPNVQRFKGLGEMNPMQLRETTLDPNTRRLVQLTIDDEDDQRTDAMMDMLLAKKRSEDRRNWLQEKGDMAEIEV
T1 sequence (P0AES4 whole entry, one chain of several): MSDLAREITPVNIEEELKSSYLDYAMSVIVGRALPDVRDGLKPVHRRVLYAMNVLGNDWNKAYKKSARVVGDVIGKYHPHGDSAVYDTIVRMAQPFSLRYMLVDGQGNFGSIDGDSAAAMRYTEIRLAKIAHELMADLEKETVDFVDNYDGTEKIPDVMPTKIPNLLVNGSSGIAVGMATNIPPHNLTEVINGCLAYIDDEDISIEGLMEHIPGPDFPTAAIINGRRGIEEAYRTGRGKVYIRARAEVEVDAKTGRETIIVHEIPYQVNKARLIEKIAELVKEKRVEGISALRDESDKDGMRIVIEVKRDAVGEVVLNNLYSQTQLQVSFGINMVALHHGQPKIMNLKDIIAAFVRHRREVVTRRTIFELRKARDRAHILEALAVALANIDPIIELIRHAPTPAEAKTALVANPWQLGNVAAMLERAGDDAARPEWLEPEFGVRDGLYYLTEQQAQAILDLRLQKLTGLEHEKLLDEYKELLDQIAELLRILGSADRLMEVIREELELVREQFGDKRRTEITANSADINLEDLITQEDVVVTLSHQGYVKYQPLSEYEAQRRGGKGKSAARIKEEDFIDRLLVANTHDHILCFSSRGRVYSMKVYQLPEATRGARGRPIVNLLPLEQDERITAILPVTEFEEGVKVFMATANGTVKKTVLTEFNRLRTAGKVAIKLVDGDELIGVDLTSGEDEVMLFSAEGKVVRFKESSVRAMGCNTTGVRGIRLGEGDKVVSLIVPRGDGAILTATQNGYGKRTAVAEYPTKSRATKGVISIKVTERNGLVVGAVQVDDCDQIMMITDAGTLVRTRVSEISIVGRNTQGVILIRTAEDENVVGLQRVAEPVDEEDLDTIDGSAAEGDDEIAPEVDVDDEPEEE

| SMILES | Activity against DNA gyrase (E. coli DNA gyrase) | Inhibition of topoisomerase IV (E. coli topoisomerase IV) | Effect on cell number (OD600) in SOS reporter assay ([1]; JE2 recA-GFP reporter with CFX (10 µM)) | SOS response (normalized GFP fluorescence/cell) [1] | Pulldown of AddA and AddB by compound-functionalized Sepharose [2] | fold weaker potentiation of CFX in MRSA growth assays [3] |
| --- | --- | --- | --- | --- | --- | --- |
| O=C(O)c1cn(C2CC2)c2cc(N3CCNCC3)c(F)cc2c1=O [CFX, ciprofloxacin, reference compound] | inhibited | inhibited | decrease in cell number at low micromolar concentrations | increase in normalized GFP fluorescence/cell; also recorded: SOS activation increased | – | – |
| O=C(O)c1cn(C2CC2)c2cc(N3CCN(C(=O)Nc4ccccc4)CC3)c(F)cc2c1=O [Compound 21] | – | – | – | did not inhibit the SOS response; also recorded: SOS activation increased | no interaction; also recorded: did not; also recorded: does not pulldown | ~100 fold |
